# In US20180344725A1, “QUINOLONE CHALCONE COMPOUNDS AND USES THEREOF” (priority 2015, published 2018):
# Experiments:
# Kidney histology (H&E) = format: in vivo, mice; details: day 30; paclitaxel 10 mg/kg; CTR 30 mg/kg; or paclitaxel 5 mg/kg + CTR 15 mg/kg
# Description: (§1) Animals were monitored for food and water consumption every day, and their body weights and tumor volumes were measured twice per week. Tumor volumes were measured with a digital caliper and were determined by using the following formula: ½ length×width^2. Blood samples were collected via cardiac puncture and processed further for ALT and AST measurements. The animals were then immediately euthanized by carbon dioxide. Tumors and vital organs (spleen, kidney, liver and lung) were collected and fixed in 10% buffered formalin at 4° C. overnight before being processed for paraffin embedding. The paraffin-embedded blocks were then cut into 4-5 μm thick sections. Each section of tumors and organs was stained with hematoxylin and eosin (H&E).
# Changes in body weight, hemoglobin (Hb) and the amount and ratio of alanine transaminase (ALT)/aspartate transaminase (AST) were used to measure toxic effects. In addition, vital organs (liver, spleen, kidney and lung) were analyzed by […] after they were harvested, fixed, processed, paraffin-embedded, sectioned, and stained as described above.
# ATH490 mice were treated as described in Table 11. At day 30, kidneys were harvested, stained with H&E, and observed under a Zeiss EPI-fluorescent microscope (40× objective).
# [1] = tested on: MDA-MB-231 human metastatic breast cancer cells; experiment: Anti-tumor activity in xenograft mice; format: in vivo; details: Tax 10 mg/kg I.V. once/week, CTR 30 mg/kg I.P. every 3 days, or Tax 5 + CTR 15 mg/kg once/week
# Description: Five-week old female CD-1 and ATH490 (strain code 490) athymic nude mice were purchased from Charles River (Quebec, Canada). The MDA-MB-231 human metastatic breast cancer cells were obtained from the American Tissue Culture Collection (ATCC, Manassas, Va., USA). Cells were maintained under humidified conditions at 37° C. and 5% CO2 in DMEM high glucose medium (ATCC) supplemented with 10% fetal bovine serum and antibiotics.
# For paclitaxel treatments, 40 mg/ml stock solution of paclitaxel (Sigma, MO) was prepared in DMSO. Just before administration to mice, the paclitaxel stock solution was diluted ten-fold in a buffer containing 10% DMSO, 12.5% Cremophor, 12.5% ethanol, and 65% saline-based diluent (0.9% sodium chloride, 5% polyethylene glycol, and 0.5% tween-80) which is defined as vehicle (Huang et al., 2006). Alanine transaminase (ALT, SUP6001-c)/Aspartate transaminase (AST, SUP6002-c) color endpoint assay kits were purchased from ID Labs Biotechnology (London, Ontario, Canada). Elevation of ALT and AST levels in serum samples was used as an indicator of liver damage/injury.
# To determine the anti-tumor activity of CTR compounds in animals, a xenograft model of human breast cancer cells in athymic nude mice was established. Exponentially growing MDA-MB-231 metastatic breast cancer cells were harvested and counted for inoculation into mice. Each mouse was subcutaneously injected at the flank with 10×10^6 cells in 0.2 ml ice cold 1×PBS. When tumor size reached 4-5 mm in diameter (n=4-5 per group), mice were randomly assigned into several groups as described herein.
# as §1
# purified porcine tubulin = experiment: Microtubule polymerization assay; format: biochemical; details: 1.0 mM GTP, 1 hour at 37° C.
# Description: The effects of the tested CTR compounds of the present disclosure on the assembly of purified tubulin were determined using a tubulin polymerization kit according to the manufacturer's instructions (Cytoskeleton Inc., Denver, Colo.). Paclitaxel (provided in the same kit), nocodazole, and colchicine (Santa Cruz, Calif.) were used as controls for the assay. The absorbent-based assay kit is based on the principle that the light scattered by the microtubules is directly proportional to the polymer mass of the microtubules when measured at 37° C. at a wavelength of 340 nm. The fluorescence-based assay kit is on the principle that fluorescent reporter molecules are incorporated into microtubules as the polymerization process being occurred. The fluorescence enhancement was measured for one hour at one-minute intervals, at the excitation of 350 nm and the emission of 430 nm. Absorbance or fluorescence was measured with an automated plate reader (Synergy H4 Hybrid Multi-Mode Microplate Reader, Bio-Tek).
# KB-C-2 = experiment: SRB-based cytotoxicity assay, single and combination with paclitaxel; format: cell-based, human; details: for IC50: Homo sapiens, KB-C2, KB-C-2, multidrug-resistant; for Resistance (fold): KB-C-2 versus KB-C-1
# Description: 1845B5 and MCF-10A non-cancer breast cell lines were cultured in DME/F12 medium supplemented with 10% fetal bovine serum, antibiotics and growth factors. […] The human small cell lung carcinoma H69 cell line and its multidrug-resistant MRP1-overexpressing isogenic H69AR cell line were purchased from ATCC. […] H69 cells grow as large multi-cell aggregates, making it difficult to accurately count cell numbers. […] The IL-6 dependent bortezomib-resistant ANBL6-BR cell line was further supplemented with 1 ng/ml of IL-6. The MCF10AT1 and MCF10CA1a cell lines are isogenic to the MCF10A cell line, and obtained from Dr. Valerie Weaver at the Center for Bioengineering and Tissue Regeneration, UCSF, CA, USA. […] The drug-resistant cells were cultured in the absence of drug for at least one passage before carrying out experiments. All cells were maintained in a humidified incubator at 37° C. […] Cell line authentication was performed using short tandem repeat (STR) profiling. […] Some wells were treated with 100 μl of 10% trichloroacetic acid (TCA) as a negative control and sham (medium with dimethyl sulfoxide; DMSO) treated cells were used as a positive control. […] TCA was removed and cells were washed with cold tap water, and plate was air-dried, followed by addition of 50 μl of 0.4% SRB staining solution to each well. After 30 minutes incubation, SRB staining solution was removed. Cells were washed with 1% acetic acid solution, and then washed with tap water to remove unbound staining solution, followed by air-drying. 200 μl of 10 mM (pH10.5) trizma base buffer was added to each well to solubilise macromolecules. […] Cell growth (inhibition) was calculated by the following formula: % cells proliferation=[(AT-CT)/(ST-CT)]×100 wherein AT=absorbance of treated cells, CT=absorbance of negative control cells, and ST=absorbance of sham treated cells. […] CI values were determined from four independent experiments.
# RPMI-8226BTZR = experiment: Killing of bortezomib-resistant multiple myeloma cells; format: cell-based
# Excerpt: The RPMI-8226BTZR over-expresses β1, β2 and β5 peptides of the 20S subunit. […] However, RPMI-8226BTZR is sensitive to CTR-20, CTR-21 and CTR-32 (FIG. 36).
# [2] = single agent at 0.5IC50 (CTR-17 0.325 μM; CTR-20 0.125 μM; paclitaxel 11.5 nM)
# [3] = single agent at IC50 (CTR-17 0.65 μM; CTR-20 0.25 μM; paclitaxel 23 nM)
SMILES,effects on the kidney (Kidney histology (H&E)),tumor size (volume) ([1]; Day 0) [mm^3],tumor size (volume) ([1]; Day 6) [mm^3],tumor size (volume) ([1]; Day 14) [mm^3],tumor size (volume) ([1]; Day 17) [mm^3],tumor size (volume) ([1]; Day 20) [mm^3],tumor size (volume) ([1]; Day 24) [mm^3],tumor size (volume) ([1]; Day 27) [mm^3],tumor size (volume) ([1]; Day 30) [mm^3],effect on tubulin/microtubule polymerization (purified porcine tubulin),IC50 (KB-C-2) [nM],Resistance (fold) (KB-C-2),Cell survival rates (KB-C-2; [2]),Cell survival rates (KB-C-2; [3]),sensitivity of RPMI-8226BTZR (RPMI-8226BTZR),Cell survival rates (KB-C-2; single agent at 0.125IC50 (paclitaxel 2.875 nM)),Cell survival rates (KB-C-2; single agent at 0.25IC50 (paclitaxel 5.75 nM))
"COc1ccccc1C(=O)/C=C/c1cc2ccccc2[nH]c1=O [CTR-17, (E)-3-(3-(2-Methoxyphenyl)-3-oxoprop-1-enyl)quinolin-2(1H)-one]",generally did not cause any notable ill-effects to the kidney,86.71,63.99,90.07,128.36,134.76,160.86,189.45,209.84,inhibited tubulin polymerization,650 ± 160,1.71,80.0 ± 11.4,53.2 ± 12.6,–,–,–
"COc1ccc2[nH]c(=O)c(/C=C/C(=O)c3ccccc3OC)cc2c1 [CTR-20, (E)-6-Methoxy-3-(3-(2-methoxyphenyl)-3-oxoprop-1-enyl) quinolin-2(1H)-one]",generally did not cause any notable ill-effects to the kidney,92.51,69.89,84.64,97.11,97.22,106.26,124.88,140.63,inhibited tubulin polymerization,250 ± 30,2.50,76.0 ± 9.6,56.8 ± 8.4,sensitive,–,–
"COc1ccccc1C(=O)/C=C/c1cc2cccc(OC)c2[nH]c1=O [CTR-21, (E)-8-methoxy-3-(3-(2-methoxyphenyl)-3-oxoprop-1-enyl) quinolin-2(1H)-one]",–,–,–,–,–,–,–,–,–,microtubule polymerization inhibitors,–,–,–,–,sensitive,–,–
"CCOc1ccccc1C(=O)/C=C/c1cc2ccccc2[nH]c1=O [CTR-32, (E)-3-(3-(2-ethoxyphenyl)-3-oxoprop-1-enyl)quinolin-2(1H)-one]",–,–,–,–,–,–,–,–,–,microtubule polymerization inhibitors,–,–,–,–,sensitive,–,–
"CC(=O)O[C@H]1C(=O)[C@@]2(C)[C@H]([C@H](OC(=O)c3ccccc3)[C@]3(O)C[C@H](OC(=O)[C@H](O)[C@@H](NC(=O)c4ccccc4)c4ccccc4)C(C)=C1C3(C)C)[C@]1(OC(C)=O)CO[C@@H]1C[C@@H]2O [Paclitaxel, reference compound]",approximately 1 out of 5 mice showed renal abnormalities,91.84,90.11,94.66,92.33,81.66,95.61,139.41,170.36,–,–,11.48,75.9 ± 7.7,48.4 ± 5.8,–,99.6 ± 0.3,89.5 ± 6.0
